Experimental data reported in paper doi:10.1101/2025.11.03.686257v1 (bioRxiv, 2025).

Legend:
Providencia stuartii = assay: Antibiotic resistance characterization of clinical isolate; type: cell-based; settings: University Hospital Pontchaillou
[1] = test system: normal human hepatocytes in primary culture; assay: Peptide-Dylight488 streptavidin cell binding assay by flow cytometry; type: cell-based; settings: peptide-Dylight488 streptavidin complexes
[2] = test system: hepatic stellar-like LX2 cells; assay: as above; type: cell-based, human; settings: peptide-Dylight488 streptavidin complexes
Huh7 HCC cell line = assay: as above; type: cell-based, human; settings: peptide-Dylight488 streptavidin complexes
Hepa1-6 HCC cell line = assay: as above; type: cell-based, murine; settings: peptide-Dylight488 streptavidin complexes
RLEC-like S3 cells = assay: as above; type: cell-based, rat; settings: peptide-Dylight488 streptavidin complexes, established line
HepG2 cells = assay: as above; type: cell-based, human; settings: peptide-Dylight488 streptavidin complexes
HEK293T cells = assay: as above; type: cell-based, human; settings: peptide-Dylight488 streptavidin complexes
HepaRG-SP cells = assay: as above; type: cell-based, human; settings: P11^Chol-Dylight488 streptavidin complexes
[3] = test system: bipotent progenitor HepaRG cells 3 days after plating; assay: as above; type: cell-based, human; settings: P11^Chol-Dylight488 streptavidin complexes
[4] = Solubility in aqueous solution; type: physicochemical; settings: stock solutions prepared in PBS at 1mM

Row | Compound | antibiotic resistance/sensitivity of the strain (Providencia stuartii) | binding to cells [1] | binding to cells [2] | binding to cells (Huh7 HCC cell line) | binding to cells (Hepa1-6 HCC cell line) | binding to cells (RLEC-like S3 cells) | further results
1 | CC1(C)S[C@@H]2[C@H](NC(=O)[C@H](N)c3ccccc3)C(=O)N2[C@H]1C(=O)O [ampicillin] | resistant | – | – | – | – | – | –
2 | O=C(N[C@H](CO)[C@H](O)c1ccc([N+](=O)[O-])cc1)C(Cl)Cl [chloramphenicol] | sensitive | – | – | – | – | – | –
3 | CC[C@H]1OC(=O)[C@H](C)[C@@H](O[C@H]2C[C@@](C)(OC)[C@@H](O)[C@H](C)O2)[C@H](C)[C@@H](O[C@@H]2O[C@H](C)C[C@H](N(C)C)[C@H]2O)[C@](C)(O)C[C@@H](C)C(=O)[C@H](C)[C@@H](O)[C@]1(C)O [erythromycin] | resistant | – | – | – | – | – | –
4 | NC[C@H]1O[C@H](O[C@H]2[C@H](O)[C@@H](O[C@H]3O[C@H](CO)[C@@H](O)[C@H](N)[C@H]3O)[C@H](N)C[C@@H]2N)[C@H](O)[C@@H](O)[C@@H]1O [kanamycin] | sensitive | – | – | – | – | – | –
5 | AFLNSNGLPTYSPKIS [Hel-Pyl] | – | no binding | no binding | no binding | no binding | bound | –
6 | EYLNSILSYSPSYYWI [E-select] | – | – | – | – | – | – | binding to cells (HepG2 cells): significant binding; binding to cells (HEK293T cells): significant binding
7 | GTLNNIPTY-YWGKGY [Provid-Stu] | – | no binding | no binding | no binding | no binding | bound | –
8 | TFLNSVPTYSYWGGGS [P11^Chol] | – | no binding | no binding | no binding | no binding | bound | percentage of positive cells (HepaRG-SP cells): less than 1%; increase in fluorescence intensity, HepaRG D3 versus HepaRG-SP cells [3]: 4 fold; percentage of positive cells ([3]; HepaRG D3): ~18%; solubility in aqueous solution [4]: high solubility
9 | amoxicillin + clavulanic acid | resistant | – | – | – | – | – | –
10 | gentamycin | sensitive | – | – | – | – | – | –
